Test results as given in paper PMC11249646, “Small-Molecule Disruptors of the Interaction between Calcium- and Integrin-Binding Protein 1 and Integrin αIIbβ3 as Novel Antiplatelet Agents” (ACS Pharmacology & Translational Science, 2024).
pIC50: −log10 of the molar value. Where two headings read alike, the source gives them in different places.

Molecular target: T1, CIB1 and αIIb interaction (CIB1-GST : F-αIIb peptide) (Homo sapiens, UniProt Q99828)
T1 construct: made in house; host or cells: BL-21 plus RIL cells (E. coli)
T1 sequence (Q99828 1-191): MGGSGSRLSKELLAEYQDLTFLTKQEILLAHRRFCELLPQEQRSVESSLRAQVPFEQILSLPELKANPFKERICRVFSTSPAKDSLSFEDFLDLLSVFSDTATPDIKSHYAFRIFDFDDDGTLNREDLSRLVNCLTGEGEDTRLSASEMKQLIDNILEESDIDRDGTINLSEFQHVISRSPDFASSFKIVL
Experiment: FP assay, 1536-well qHTS format (primary and confirmatory screen)
Type: binding
Settings: for Efficacy (%): negative = inhibition; for Curve Class: negative sign = inhibitory curve; for pIC50: read-out: IC50

[1] = qHTS primary screen hits, Table S2
[2] = qHTS primary screen hits, Table S2, several classes where COUNT > 1
[3] = qHTS primary screen of LOPAC/NPACT libraries

Row | SMILES | Efficacy (%) [1] | Curve Class [2] | pIC50 [1] | further results
1 | CC(=O)NCc1ccc(-c2csc(Nc3cccc(C)c3)n2)o1.O=C(O)C(F)(F)F [NCGC00304445-03] | -38% | -2.4 | 4.35 | –
2 | CC(=O)NCc1ccc(-c2csc(Nc3cc(C)cc(C)c3)n2)o1.O=C(O)C(F)(F)F [NCGC00314997-03] | -84% | -2.4 | 4.30 | –
3 | CCCc1ccc(-c2csc(NC(=O)c3ccncc3NS(=O)(=O)c3ccc(C)cc3)n2)cc1.O=C(O)C(F)(F)F [NCGC00318955-01] | -35% | -2.4 | 4.30 | –
4 | COc1cccc(-c2csc(NC(=O)c3ccncc3NS(=O)(=O)c3ccc(C)cc3)n2)c1.O=C(O)C(F)(F)F [NCGC00319006-01] | -58% | -2.2 | 4.32 | –
5 | COc1ccc(-c2csc(NC(=O)c3ccncc3NS(=O)(=O)c3ccc(C)cc3)n2)cc1.O=C(O)C(F)(F)F [NCGC00319009-01] | -53% | -2.4 | 4.25 | –
6 | COc1cccc2c1C(=O)c1c(O)c3c(c(O)c1C2=O)C[C@@](O)(C(=O)CO)CC3OC1CC(N2CCOC(OC)C2)C(O)C(C)O1 (stereo partly drawn) [NCGC00319019-01] | -40% | – | 5.00 | Curve Class [1]: -1.4
7 | Cc1cc(SCc2sc(-c3ccc(Cl)cc3)nc2C)ccc1OCC(=O)O.O=C(O)C(F)(F)F [NCGC00319056-01] | -32% | – | 4.25 | Curve Class [1]: -2.4
8 | Cc1ccc(S(=O)(=O)Nc2cnccc2C(=O)Nc2cccc3ccccc23)cc1.O=C(O)C(F)(F)F [NCGC00343900-01] | -32% | – | 4.30 | Curve Class [1]: -2.4
9 | Cc1ccc(S(=O)(=O)Nc2cnccc2C(=O)Nc2nc(C(=O)O)cs2)cc1.O=C(O)C(F)(F)F [NCGC00343903-01] | -36% | -2.4 | 4.30 | –
10 | O=C(O)C(F)(F)F.O=S(=O)(Nc1ccc(C2CCNCC2)cc1)c1ccc(NCc2ccc(Br)cc2O)cc1 [NCGC00343916-01] | -31% | -2.4 | 4.25 | –
11 | COc1cccc(CNc2ccc(S(=O)(=O)Nc3ccc(C4CCNCC4)cc3)cc2)c1O.O=C(O)C(F)(F)F [NCGC00343917-01] | -46% | – | 4.30 | Curve Class [1]: -2.4
12 | COc1cc2c(cc1OC)-c1[nH]nc(Nc3cccc(F)c3)c1C2 [NCGC00343986-02] | – | – | – | Efficacy (%) [3]: -25%; Curve Class [3]: -2.4; pIC50 [3]: 4.20
13 | O=C(Nc1nc(-c2ccccc2)cs1)c1ccncc1NS(=O)(=O)c1ccc(Cl)cc1.O=C(O)C(F)(F)F [NCGC00344892-01] | -48% | – | 4.27 | –
14 | O=C(Nc1nc(-c2ccccc2)cs1)c1ccncc1NS(=O)(=O)c1ccccc1.O=C(O)C(F)(F)F [NCGC00344903-01] | -44% | -2.2 | 4.35 | –
15 | Cc1cccc(S(=O)(=O)Nc2cnccc2C(=O)Nc2nc(-c3ccccc3)cs2)c1.O=C(O)C(F)(F)F [NCGC00344904-01] | -43% | -2.4 | 4.25 | –
16 | COc1cccc(S(=O)(=O)Nc2cnccc2C(=O)Nc2nc(-c3ccccc3)cs2)c1.O=C(O)C(F)(F)F [NCGC00344906-01] | -33% | -2.2 | 4.30 | –
17 | O=C(Nc1nc(-c2ccccc2)cs1)c1ccncc1NS(=O)(=O)c1ccc(F)cc1.O=C(O)C(F)(F)F [NCGC00344931-02] | -38% | – | 4.27 | –
18 | O=C(Nc1nc(-c2ccccc2)cs1)c1ccncc1NS(=O)(=O)c1ccc(F)c(F)c1.O=C(O)C(F)(F)F [NCGC00344933-01] | -34% | -3 | 4.10 | –
19 | N#Cc1ccc(S(=O)(=O)Nc2cnccc2C(=O)Nc2nc(-c3ccccc3)cs2)cc1.O=C(O)C(F)(F)F [NCGC00344937-01] | -38% | – | 4.10 | Curve Class [1]: -2.4

Row | SMILES | Efficacy (%) [1] | Curve Class [2] | pIC50 [1] | further results
20 | O=C(Nc1nc(-c2ccccc2)cs1)c1ccncc1NS(=O)(=O)c1ccccc1Cl.O=C(O)C(F)(F)F [NCGC00344943-02] | -50% | – | 4.19 | –
21 | Cc1cc(S(=O)(=O)Nc2cnccc2C(=O)Nc2nc(-c3ccccc3)cs2)c(C)o1.O=C(O)C(F)(F)F [NCGC00345029-02] | – | – | – | Efficacy (%) (qHTS FP screen hits, Table S2): -46%; pIC50 (qHTS FP screen hits, Table S2): 4.42
22 | O=C(Nc1nc(-c2ccccc2)cs1)c1ccncc1NS(=O)(=O)c1ccc(F)cc1Cl.O=C(O)C(F)(F)F [NCGC00345105-01] | -42% | -2.2 | 4.10 | –
23 | Fc1cc(Nc2nc(-c3ccncc3)nc3ccccc23)ccc1N1CCNCC1.O=C(O)C(F)(F)F [NCGC00345204-01] | -36% | -2.4 | 4.05 | –
24 | CC1(C)CCC(CN2CCN(c3ccc(C(=O)NS(=O)(=O)c4ccc(NCC5CCOCC5)c([N+](=O)[O-])c4)c(Oc4cnc5[nH]ccc5c4)c3)CC2)=C(c2ccc(Cl)cc2)C1 [NCGC00345789-10] | – | – | – | Efficacy (%) [3]: -26%; Curve Class [3]: -2.4; pIC50 [3]: 4.40
25 | COc1cc2c(cc1OC)CN(CCc1ccc(NC(=O)c3cc(OC)c(OC)cc3NC(=O)c3cnc4ccccc4c3)cc1)CC2 [NCGC00346448-01] | -30% | -2.4 | 4.37 | –
26 | Cc1cc(N2CCOCC2)cc2[nH]c(-c3c(NC[C@@H](O)c4cccc(Cl)c4)cc[nH]c3=O)nc12 [NCGC00346460-05] | – | – | – | Efficacy (%) [3]: -28%; Curve Class [3]: -1.4; pIC50 [3]: 4.75
27 | C=CC(=O)Nc1cccc(Oc2nc(Nc3ccc(N4CCN(C)CC4)cc3)ncc2Cl)c1 [NCGC00346496-04] | – | – | – | Efficacy (%) [3]: -28%; Curve Class [3]: -2.4; pIC50 [3]: 4.35
28 | C=CC(=O)Nc1cccc(Sc2nc(Nc3ccc(N4CCN(C)CC4)cc3)ncc2Cl)c1 [NCGC00346497-02] | – | – | – | Efficacy (%) [3]: -29%; Curve Class [3]: -2.4; pIC50 [3]: 4.70
29 | C=C1C(=O)[C@@]23C(CC[C@@H]1[C@H]2O)[C@@]12CO[C@]3(O)[C@@H](O)[C@@H]1C(C)(C)CC[C@@H]2O (stereo partly drawn) [NCGC00346595-01] | – | – | – | Efficacy (%) (qHTS FP screen hits, Table S2): -48%; pIC50 (qHTS FP screen hits, Table S2): 4.48
30 | CC(C)(O)CC(=O)NCCn1ccc2ncnc(Nc3ccc(Oc4cccc(C(F)(F)F)c4)c(Cl)c3)c21 [NCGC00346699-06] | – | – | – | Efficacy (%) [3]: -30%; Curve Class [3]: -2.4; pIC50 [3]: 4.00
31 | COc1cccc(CNc2ccc(S(=O)(=O)Nc3nc(-c4ccccc4)cs3)cc2)c1O.O=C(O)C(F)(F)F [NCGC00346865-01] | -34% | – | 4.30 | Curve Class [1]: -2.4
32 | Cc1c(-c2cccc3c(CCCOc4cccc5ccccc45)c(C(=O)O)n(Cc4cccnc4)c23)c(COc2ccc(N3CCN(S(=O)(=O)N(C)C)CC3)cc2)nn1C [NCGC00347282-01] | -34% | -3 | 4.52 | –
33 | Cc1cc(OCCCc2c(C(=O)O)n(Cc3cccnc3)c3c(-c4c(COc5ccc(N6CCN(S(C)(=O)=O)CC6)cc5)nn(C)c4C)cccc23)cc(C)c1Cl [NCGC00347283-01] | -26% | – | 4.47 | Curve Class [1]: -2.4
34 | COc1ccc(OC)c(-n2c3c(cc(-c4nnn(-c5ccc(Cl)cc5)n4)c2=O)C(=O)CC(C)(C)C3)c1.O=C(O)C(F)(F)F [NCGC00347300-01] | -41% | – | 4.05 | Curve Class [1]: -3
35 | CC(=O)O[C@@H](CO[C@@H]1O[C@H](CO)[C@H](O)[C@H](O)[C@H]1O)[C@]1(C)C=C2CC[C@@H]3C(C)(C)[C@@H](O)CC[C@@]3(C)[C@@H]2CC1 [NCGC00347395-02] | – | – | – | Efficacy (%) [3]: -23%; Curve Class [3]: -2.4; pIC50 [3]: 4.80
36 | Cc1c(C)n(Cc2ccc(-c3ccccc3C(=O)O)cc2)c2ccc(C(=O)N[C@@H](C)c3ccc([N+](=O)[O-])cc3)cc12 [NCGC00347955-01] | – | – | – | Efficacy (%) (qHTS FP screen hits, Table S2): -32%; pIC50 (qHTS FP screen hits, Table S2): 4.63
37 | O=C(Nc1ccc(S(=O)(=O)N2CCOCC2)cc1)c1ccc(N2CCc3ccccc3C2)cc1 [NCGC00348032-01] | -34% | -2.4 | 4.30 | –
